The text below walks through data of patent publication US9975903B2, “Condensed heterocyclic compound” (Takeda Pharmaceutical Company Limited, priority 2014, dated 2018).

Where a name gives a salt, the structure may show the parent alone.

For one test, the target named is T1, Human recombinant enteropeptidase (Homo sapiens, UniProt P98073).
T1 construct: purchased ITSI-Biosciences LLC #REN-260
T1 sequence (P98073 whole entry): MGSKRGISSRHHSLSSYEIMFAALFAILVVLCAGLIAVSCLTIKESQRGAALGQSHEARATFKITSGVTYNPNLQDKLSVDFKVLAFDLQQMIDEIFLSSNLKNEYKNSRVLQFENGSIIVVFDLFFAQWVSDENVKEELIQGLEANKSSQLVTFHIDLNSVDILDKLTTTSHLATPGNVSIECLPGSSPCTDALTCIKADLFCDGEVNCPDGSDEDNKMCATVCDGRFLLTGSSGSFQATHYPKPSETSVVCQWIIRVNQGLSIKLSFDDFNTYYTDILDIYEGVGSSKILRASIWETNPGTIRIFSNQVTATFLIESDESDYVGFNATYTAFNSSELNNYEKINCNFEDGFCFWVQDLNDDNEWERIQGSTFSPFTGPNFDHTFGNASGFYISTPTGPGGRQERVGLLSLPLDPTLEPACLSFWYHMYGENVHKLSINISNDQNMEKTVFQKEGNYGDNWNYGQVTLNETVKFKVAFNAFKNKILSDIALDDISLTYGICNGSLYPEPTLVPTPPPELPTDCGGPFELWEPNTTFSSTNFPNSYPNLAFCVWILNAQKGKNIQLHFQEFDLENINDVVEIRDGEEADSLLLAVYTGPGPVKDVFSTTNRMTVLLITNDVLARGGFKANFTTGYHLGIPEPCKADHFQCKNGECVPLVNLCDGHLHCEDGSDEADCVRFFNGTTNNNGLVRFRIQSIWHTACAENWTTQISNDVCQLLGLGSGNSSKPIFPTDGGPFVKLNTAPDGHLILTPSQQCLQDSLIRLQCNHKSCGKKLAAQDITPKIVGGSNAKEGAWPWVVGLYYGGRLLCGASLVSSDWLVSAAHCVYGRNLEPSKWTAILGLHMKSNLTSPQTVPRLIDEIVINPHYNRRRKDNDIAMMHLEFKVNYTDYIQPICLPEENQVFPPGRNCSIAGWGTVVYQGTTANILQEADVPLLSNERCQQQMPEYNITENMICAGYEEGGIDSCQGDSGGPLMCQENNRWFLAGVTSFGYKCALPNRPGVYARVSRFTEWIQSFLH
Put plainly: Human enteropeptidase inhibitory activity (Test Example 1). It counts as biochemical. The following applies: 3.3 μM test compound; inhibition rate from fluorescence intensity at 2 hours after the start of the reaction; read-out: 3.3 μM Inhibition. As for the experimental part:
Human recombinant enteropeptidase (#REN-260, ITSI-Biosciences LLC) was diluted with an assay buffer (50 mM Tricine, pH 8.0, 0.01 (w/v) %, Tween 20, 10 mM CaCl2) to prepare a 24 mU/mL enzyme solution. Subsequently, 5FAM-Abu-Gly-Asp-Asp-Asp-Lys-Ile-Val-Gly-Gly-Lys(CPQ2)-Lys-Lys-NH2 (SEQ ID NO: 1, purity: 97.2%, CPC Scientific Inc.) was diluted with the assay buffer to prepare a 2.1 μM substrate solution. A test compound is dissolved in DMSO into a 1 mM solution, and the solution was diluted by 100-fold with the assay buffer to give a compound solution. To a 384-well black plate (#784076, Greiner Bio-One), 5 μL of the compound solution and 5 μL of the substrate solution were added and mixed, and 5 μL of the enzyme solution was then added to the mixture, followed by mixing to start the reaction. The fluorescence intensity was measured with a fluorescence plate reader EnVision (The Perkin-Elmer Corp.) at an excitation wavelength of 485 nm and a fluorescence wavelength of 535 nm. The same reaction as above except that the test compound was not contained was performed (test compound non-addition group). Furthermore, the same reaction as above except that the test compound and the enzyme were not contained was performed (control group). The inhibition rate was calculated using the fluorescence intensity at 2 hours after the start of the reaction by the following expression: Inhibition rate (%)=(1−((fluorescence intensity of test compound addition group)−(fluorescence intensity of control group))/((fluorescence intensity of test compound non-addition group)−(fluorescence intensity of control group)))×100
By inhibition is commonly meant the relative decrease from the control value, in per cent. Consider `N=C(N)Nc1ccc2c(c1)CCCOc1c(cccc1C(=O)N(CCC(=O)O)CC(=O)O)OC2=O` [Example 64, N-((10-carbamimidamido-13-oxo-6,7,8,13-tetrahydro-dibenzo[b,f] [1,4]dioxecin-4-yl)carbonyl)-N-(carboxymethyl)-beta-alanine], for which the inhibition at 3.3 µM came to 101%.

Consider `N=C(N)Nc1ccc2c(c1)CCCOc1c(CCC(=O)N[C@@H](CCC(=O)O)C(=O)O)cccc1OC2=O` [Example 93, N-(3-(10-carbamimidamido-13-oxo-6,7,8,13-tetrahydro-dibenzo[b,f] [1,4]dioxecin-4-yl)propanoyl)-L-glutamic acid], for which the inhibition at 3.3 µM stood at 100%. Turning to `N=C(N)Nc1ccc2c(c1)CCCOc1c(ccc(CCC(=O)N(CC(=O)O)CC(=O)O)c1C(=O)N[C@@H](Cc1ccc(O)cc1)C(=O)O)OC2=O` [Example 124, N-((3-(3-(bis(carboxymethyl)amino)-3-oxopropyl)-10-carbamimidamido-13-oxo-6,7,8,13-tetrahydro-dibenzo[b,f] [1,4]dioxecin-4-yl)carbonyl)-L-tyrosine], the inhibition at 3.3 µM is 101%. On the same count and under the same terms, the result for `N=C(N)Nc1ccc2c(c1)CCc1cc(CCC(=O)N[C@@H](CC(=O)O)C(=O)O)ccc1OC2=O` [Example 56, N-(3-(9-carbamimidamido-6-oxo-11,12-dihydro-6H-dibenzo[b,f]oxocin-2-yl)propanoyl)-L-aspartic acid] reads 100%; that for `N=C(N)Nc1ccc2c(c1)CCCOc1c(ccc(CCC(=O)O)c1C(=O)N(CCN(CC(=O)O)CC(=O)O)CC(=O)O)OC2=O` [Example 149], 101%; that for `N=C(N)Nc1ccc2c(c1)CCCOc1c(cccc1C(=O)N[C@@H](Cc1ccc(O)cc1)C(=O)O)OC2=O` [Example 10, N-((10-carbamimidamido-13-oxo-6,7,8,13-tetrahydro-dibenzo[b,f] [1,4]dioxecin-4-yl)carbonyl)-L-tyrosine], 101%.

With `N=C(N)Nc1ccc2c(c1)OCCCCOc1cc(CCC(=O)NC(CC(=O)O)C(=O)O)ccc1OC2=O` (stereo not shown) [Example 46, N-(3-(3-carbamimidamido-16-oxo-6,7,8,9-tetrahydro-16H-dibenzo[b,f][1,4,8]trioxacyclo-dodecin-12-yl)propanoyl) aspartic acid], the inhibition at 3.3 µM was found to be 100%.

On to `N=C(N)Nc1ccc2c(c1)CCCOc1c(cccc1C(=O)N(CC(=O)O)CC(=O)O)OC2=O` [Example 14, 2,2′-(((10-carbamimidamido-13-oxo-6,7,8,13-tetrahydro-dibenzo[b,f] [1,4]dioxecin-4-yl)carbonyl)imino) diacetic acid], for which the inhibition at 3.3 µM is 101%. For `N=C(N)Nc1ccc2c(c1)CCCOc1c(cccc1C(=O)N(CC(=O)O)[C@@H](CC(N)=O)C(=O)O)OC2=O` [Example 65, N^2-((10-Carbamimidamido-13-oxo-6,7,8,13-tetrahydrodibenzo[b,f][1,4]dioxecin-4-yl)carbonyl)-N^2-(carboxymethyl)-L-asparagine], the inhibition at 3.3 µM came to 100%.

Consider `N=C(N)Nc1ccc2c(c1)CCCCc1sc(C(=O)N[C@@H](CC(=O)O)C(=O)O)cc1OC2=O` [Example 26, N-((9-Carbamimidamido-12-oxo-5,6,7,12-tetrahydro-4H-thieno[3,2-c][2]benzooxecin-2-yl)carbonyl)-L-aspartic acid], for which the inhibition at 3.3 µM stood at 45%. Still for that read-out and setting: as for `N=C(N)Nc1ccc2c(c1)CCCOc1c(CCC(=O)O)cccc1OC2=O` [Example 91, 3-(10-Carbamimidamido-13-oxo-6,7,8,13-tetrahydrodibenzo[b,f][1,4]dioxecin-4-yl)propanoic acid trifluoroacetate], the figure is 102%; as for `N=C(N)Nc1ccc2c(c1)CCCOc1c(cccc1C(=O)N[C@@H](CCC(=O)O)C(=O)O)OC2=O` [Example 18, N-((10-Carbamimidamido-13-oxo-6,7,8,13-tetrahydrodibenzo[b,f][1,4]dioxecin-4-yl)carbonyl)-L-glutamic acid], 101%; as for `N=C(N)Nc1ccc2c(c1)CCCCc1c(cccc1C(=O)N[C@@H](CC(=O)O)C(=O)O)OC2=O` [Example 37, N-((3-Carbamimidamido-14-oxo-5,7,8,14-tetrahydro-6H-dibenzo[b,h]oxecin-9-yl)carbonyl)-L-aspartic acid], 101%.

Take `N=C(N)Nc1ccc2c(c1)CCCOc1c(cccc1C(=O)NCC(=O)N[C@@H](CC(=O)O)C(=O)O)OC2=O` [Example 100, N-((10-carbamimidamido-13-oxo-6,7,8,13-tetrahydro-dibenzo[b,f] [1,4]dioxecin-4-yl)carbonyl)glycyl-L-aspartic acid]: the inhibition at 3.3 µM is 101%. The same measure, in the same setting: the result for `N=C(N)Nc1ccc2c(c1)COc1c(cccc1C(=O)N[C@@H](CC(=O)O)C(=O)O)OC2=O` [Example 19, N-((9-Carbamimidamido-6-oxo-6,11-dihydrodibenzo[b,f][1,4]dioxocin-1-yl)carbonyl)-L-aspartic acid trifluoroacetate] reads 99%; that for `N=C(N)Nc1ccc2c(c1)CCCOc1c(cccc1C(=O)NCCS(=O)(=O)O)OC2=O` [Example 28, 2-(((10-carbamimidamido-13-oxo-6,7,8,13-tetrahydro-dibenzo[b,f] [1,4]dioxecin-4-yl)carbonyl)amino) ethanesulfonic acid], 102%; that for `N=C(N)NCCC[C@H](NC(=O)c1cccc2c1OCCCc1cc(NC(=N)N)ccc1C(=O)O2)C(=O)O` [Example 8, N^~2^~-((10-carbamimidamido-13-oxo-6,7,8,13-tetrahydro-dibenzo[b,f] [1,4]dioxecin-4-yl)carbonyl)-L-arginine], 100%. On to `COc1ccc(C[C@H](NC(=O)c2c(CCC(=O)O)ccc3c2OCCCc2cc(NC(=N)N)ccc2C(=O)O3)C(=O)O)cc1` [Example 112, N-((10-carbamimidamido-3-(2-carboxyethyl)-13-oxo-6,7,8,13-tetrahydro-dibenzo[b,f] [1,4]dioxecin-4-yl)carbonyl)-O-methyl-L-tyrosine], for which the inhibition at 3.3 µM was 99%. Still for that read-out and setting: as for `Cc1cc2c(c(C(=O)N[C@@H](CC(=O)O)C(=O)O)c1)CCCCc1cc(NC(=N)N)ccc1C(=O)O2` [Example 72, N-((3-carbamimidamido-11-methyl-14-oxo-5,7,8,14-tetrahydro-6H-dibenzo[b,h]oxecin-9-yl)carbonyl)-L-aspartic acid], the figure is 101%. Regarding `N=C(N)Nc1ccc2c(c1)CCCOc1c(cccc1C(=O)N[C@@H](CC(N)=O)C(=O)O)OC2=O` [Example 17, N^~2^~-((10-carbamimidamido-13-oxo-6,7,8,13-tetrahydro-dibenzo[b,f] [1,4]dioxecin-4-yl)carbonyl)-L-asparagine], the inhibition at 3.3 µM was determined as 100%.

Take `N=C(N)Nc1ccc2c(c1)CCCOc1cc(C(=O)N[C@H](CC(=O)O)C(=O)O)ccc1OC2=O` (stereo in doubt) [Example 45, N-((10-carbamimidamido-13-oxo-6,7,8,13-tetrahydro-dibenzo[b,f] [1,4]dioxecin-3-yl)carbonyl)aspartic acid]: the inhibition at 3.3 µM turned out to be 100%.

The test is the same for the next values; noted with them: read-out: 3.3 μM Inhibition.
Regarding `N=C(N)c1ccc2c(c1)CCc1ccccc1C(=O)O2` [Example 59, 6-Oxo-11,12-dihydro-6H-dibenzo[b,f]oxocine-2-carboximidamide trifluoroacetate], the inhibition at 3.3 µM was found to be 57%.
